The source made the active and inactive calls. The calls are words filed in the database; no cut-off is given here.

In test [1] the test system is MCF7. Description: Induction of cell cycle arrest in human MCF7 cells assessed as accumulation of cells at S phase at IC50 incubated for 24 hrs by PI staining based flow cytometric analysis relative to control. It is filed as functional. (In general: In flow cytometry, cells or beads pass a laser one at a time.)
Test [2] concerns A549. The test can be described thus: Cytotoxicity against human A549 cells assessed as inhibition of cell proliferation incubated for 72 hrs by MTT assay. It is filed as functional, cell-based. The conditions noted are these: A549, 72 h. In general terms: Tetrazolium assays rely on reduction of a dye to a coloured formazan, in cell work by metabolically active cells.
Test [3] concerns Mitochondrial membrane. The test can be described thus: Disruption of mitochondrial membrane integrity in human A549 cells assessed as mitochondrial swelling by TEM analysis. The format is cell membranes.
The test system of test [4] is A549. Description: Antitumor activity against human A549 cells xenografted in chicken embryo chorioallantoic membrane assessed as necrosis at 1.5 to 4.5 uM by H and E staining based analysis. It is filed as functional, cell-based. The settings on record: dose 1.5-4.5 µM. (Xenograft models place foreign cells or tissue in a host animal.)
Test [5] deals with A549. Description: Induction of DNA damage in human A549 cells assessed as gammaH2AX positive cells at IC50 incubated for 48 hrs by PI staining based flow cytometric analysis (reference value: 4.90 +/- 0.50%). The format is functional.
Test [6] deals with Mitochondrial membrane. The test can be described thus: Disruption of mitochondrial membrane integrity in human MCF7 cells assessed as change in mitochondrial size by TEM analysis. It is filed as cell membranes.
Test [7] has as its system MCF7. The test can be described thus: Cytotoxicity against human MCF7 cells assessed as inhibition of cell proliferation incubated for 72 hrs by MTT assay. It is filed as functional, cell-based. The settings on record: MCF7, 72 h.
Test [8] has as its system MCF7. The test can be described thus: Inhibition of cell adhesion in human MCF7 cells assessed as reduction in cell aggregates formation at IC50 incubated for 48 hrs by inverted phase contrast microscopic analysis. It is filed as functional, cell-based.
In test [9] the test system is Mitochondrial membrane. Description: Disruption of mitochondrial membrane integrity in human A549 cells assessed as absence of well-developed cristae by TEM analysis. The format is cell membranes.
In test [10] the test system is MCF7. Description: Induction of cell cycle arrest in human MCF7 cells assessed as accumulation of cells at G1 phase at IC50 incubated for 24 hrs by PI staining based flow cytometric analysis relative to control. The format is functional.
In test [11] the test system is Mitochondrial membrane. The test can be described thus: Induction of mitochondrial membrane depolarization in human A549 cells assessed as increase in mitochondrial fission by measuring appearance of circular mitochondria by confocal microscopic analysis. The format is cell membranes.
Test [12] concerns Mitochondrial membrane. Description: Disruption of mitochondrial membrane integrity in human MCF7 cells assessed as change in mitochondrial shape by TEM analysis. The format is cell membranes.
The test system of test [13] is MCF7. The test can be described thus: Antitumor activity against human MCF7 cells xenografted in chicken embryo chorioallantoic membrane assessed as change in nuclear morphology at 1.5 to 4.5 uM by H and E staining based analysis. It is filed as functional, cell-based. The conditions noted are these: dose 1.5-4.5 µM.
The subject of test [14] is Mitochondrial membrane. Description: Disruption of mitochondrial membrane integrity in human A549 cells assessed as change in mitochondrial size by TEM analysis. The format is cell membranes.
For test [15], the system named is Mitochondrial membrane. Description: Disruption of mitochondrial membrane integrity in human MCF7 cells assessed as presence of bloated mitochondria by TEM analysis. It is filed as cell membranes.
Test [16] relates to Mitochondrial membrane. Description: Induction of mitochondrial membrane depolarization in human MCF7 cells assessed as increase in mitochondrial fission by measuring appearance of circular mitochondria by confocal microscopic analysis. The format is cell membranes.
Test [17] deals with Mitochondrial membrane. Description: Disruption of mitochondrial membrane integrity in human MCF7 cells assessed as change in mitochondrial internal organization by TEM analysis. The format is cell membranes.
Test [18] has as its system MCF7. Description: Induction of apoptosis in human MCF7 cells assessed as increase in apoptotic cells incubated for 24 hrs by Annexin-V and 7-AAD staining based flow cytometric analysis (reference value: 5.70 +/- 1.56%). The format is functional.
In test [19] the test system is A549. The test can be described thus: Induction of cell cycle arrest in human A549 cells assessed as accumulation of cells at G1 phase at IC50 incubated for 48 hrs by PI staining based flow cytometric analysis (reference value: 53.5 +/- 4.01%). It is filed as functional.

The IC50 is the concentration needed to halve the response being measured. As for `CC(=S)NC1CCc2[nH]c3ccc(Br)cc3c2C1` (centres undefined), the Activity amounted to 25.65% with MCF7 [1]; 11.98% with A549 [5]; 33.7% with MCF7 [10]; 10.8% in the test with MCF7 [18]; 46.15% with A549 [19]. Moreover, the concentration for half-maximal inhibition (IC50) in the test on A549 [2] is 4.54 µM; in the test with MCF7 [7], 3.81 µM. Further, the outcome in the test on Mitochondrial membrane [3], in the test on A549 [4], in the test on Mitochondrial membrane [6], in the test on Mitochondrial membrane [9], in the test with Mitochondrial membrane [11] and with Mitochondrial membrane [12] was Active. Further, the result with MCF7 [13], in the test on Mitochondrial membrane [14], with Mitochondrial membrane [15], in the test on Mitochondrial membrane [16] and in the test on Mitochondrial membrane [17] was Active. In addition, the inhibition entry with MCF7 [8] was “Active”.

The values above are taken from ChEMBL document CHEMBL6071148, “Synthesis and biological evaluation of novel 3,6- amide and thioamide substituted- 2,3,4,9-tetrahydro-1H-carbazoles for anti-cancer activity” (Eur J Med Chem, 2024).
